Experiments:
endogenous TFE3 = test: TFE3 nuclear translocation, immunocytochemistry high-content imaging; format: cell-based; conditions: PKIS2 primary screening
endogenous TFEB = test: TFEB nuclear translocation, immunocytochemistry high-content imaging; format: cell-based; conditions: PKIS2 primary screening
SH-SY5Y cells [1] = test: Nuclear count from microscopy images (cellular growth and toxicity); conditions: PKIS2 primary screening; note: reference of the scale not given here
SH-SY5Y cells [2] = test: AK (adenylate kinase) release ToxiLight cytotoxicity assay; conditions: PKIS2 primary screening; note: reference of the scale not given here
SH-SY5Y cells [3] = conditions: PKIS2 primary screening; for DQ Intensity: DQ Red BSA intensity; for DQ Spot: DQ Red BSA spot count
Excerpt: The PKIS2 Library was supplied by The Structural Genomics Consortium at the University of North Carolina at Chapel Hill.
Throughout, for DQ Intensity: reference of the scale not given here.
Throughout, for DQ Spot: reference of the scale not given here.

| SMILES | TFE3 % (endogenous TFE3) [%] | TFEB % (endogenous TFEB) [%] | Nuclear Count (SH-SY5Y cells [1]) | AK (SH-SY5Y cells [2]) | DQ Intensity (SH-SY5Y cells [3]) | DQ Spot (SH-SY5Y cells [3]) |
| --- | --- | --- | --- | --- | --- | --- |
| COC(=O)Nc1nc2ccc(Oc3ccc(NC(=O)Nc4cc(F)ccc4F)cc3)cc2[nH]1 [GW701424] | 22.54 | 4.66 | 68.78 | 149.19 | 130.75 | 124.31 |
| CN1CCN(CCNc2nc3ccc(Oc4ccc(NC(=O)Nc5cc(C(F)(F)F)ccc5F)cc4)cc3[nH]2)CC1 [GW768504] | 12.94 | 4.72 | 72.38 | 155.92 | 103.13 | 113.95 |
| COc1ccc(C)c(Nc2ccnc(Nc3ccc(-c4cnc[nH]4)cc3)n2)c1 [GW784041] | 11.03 | 16.17 | 105.20 | 81.91 | 109.83 | 101.33 |
| Cc1c2ccc(N(C)c3ccnc(Nc4cccc(S(N)(=O)=O)c4)n3)cc2nn1Cc1ccccc1 [GW787226] | 15.06 | 8.93 | 121.46 | 80.53 | 91.24 | 90.69 |
| CN(c1ccc(NC(=O)Nc2cc(C(F)(F)F)ccc2F)cc1)c1ccnc(Nc2ccc(S(N)(=O)=O)cc2)n1 [GW809893] | 18.55 | 22.40 | 46.13 | 111.00 | 76.59 | 83.26 |
| CN(c1ccc2c(c1)nc(NCc1ccccc1)n2C)c1ccnc(Nc2ccc(CS(C)(=O)=O)cc2)n1 [GW811603] | 9.93 | 7.98 | 118.98 | 192.03 | 108.65 | 109.65 |
| CN(c1ccc2c(c1)nc(NCc1ccc(F)cc1)n2C)c1ccnc(Nc2ccc(CS(C)(=O)=O)cc2)n1 [GW813244] | 13.77 | 4.30 | 104.49 | 87.46 | 93.66 | 106.18 |
| CN1CCN(Cc2ccc(NC(=O)Nc3ccc(N(C)c4ccnc(Nc5ccc(CS(C)(=O)=O)cc5)n4)cc3)cc2)CC1 [GW827654] | 10.58 | 6.08 | 120.62 | 74.74 | 92.35 | 93.05 |
| CN(c1ccc(NC(=O)Nc2cccc(Cl)c2)cc1)c1ccnc(N)n1 [GW830707] | 9.81 | 11.00 | 115.77 | 94.92 | 86.00 | 87.81 |
| CN(c1ccc(NC(=O)N2CCN(CCCN3CCOCC3)CC2)cc1)c1ccnc(Nc2ccc(CS(C)(=O)=O)cc2)n1 [GW830899] | 11.27 | 7.11 | 123.35 | 75.66 | 91.97 | 98.21 |
| O=C(Nc1n[nH]c2cc(-c3ccccc3F)ccc12)C1CC1 [SB-733371] | 7.51 | 4.96 | 133.33 | 88.17 | 129.64 | 114.49 |
| O=C(Nc1n[nH]c2cc(-c3cccc(F)c3F)ccc12)C1CC1 [SB-733894] | 15.11 | 5.04 | 112.33 | 80.72 | 66.38 | 85.29 |
